Reference: patent publication US20080287472A1 (priority 2002, published 2008)

Tests used:
[1] = tested on: Pyricularia oryzae (rice blast); format: in vivo; conditions: 200 ppm, rice leaf segments, sprayed before inoculation, assessed four days after inoculation
[2] = tested on: Erysiphe graminis f.sp. tritici (wheat powdery mildew); conditions: in vivo
[3] = tested on: Erysiphe graminis f.sp. hordei (barley powdery mildew); conditions: in vivo

Row | Compound | melting point | control of disease [1] | control of disease [2] | control of disease [3]
1 | CCC(C)Nc1nc2ncncc2c(Cl)c1-c1c(F)cc(F)cc1F (stereo not shown) | 179 °C |  |  | 
2 | CC(C)Nc1c(-c2c(F)cc(F)cc2F)c(Cl)nc2cncnc12 [Compound 3 (1), [6-chloro-7-(2,4,6-trifluorophenyl)-pyrido[3,2-d]pyrimidin-8-yl]-isopropylamine] |  | greater than 60% | greater than 60% | greater than 60%
